Active and inactive are the calls of the source.
Tests used:
[1] = target: Lymphokine-activated killer T-cell-originated protein kinase (Homo sapiens, UniProt Q96KB5); format: functional;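 further: value comes from a kinase panel screen in which TOPK was one of the panel members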
[2] = target: MAP kinase-activated protein kinase 3 (Homo sapiens, UniProt Q16644); format: functional;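 further: value comes from a kinome-wide profiling panel in which MAPKAPK3 is one of the panel members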
[3] = target: Dual specificity tyrosine-phosphorylation-regulated kinase 4 (Homo sapiens, UniProt Q9NR20); format: functional
[4] = target: Serine/threonine-protein kinase D2 (Homo sapiens, UniProt Q9BZL6); format: functional;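 further: measured against PRKD2 as one member of a kinome-wide kinase profiling panel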
[5] = target: Protein kinase C gamma type (Homo sapiens, UniProt P05129); format: functional
[6] = target: Eukaryotic elongation factor 2 kinase (Homo sapiens, UniProt O00418); format: functional
[7] = target: Testis-specific serine/threonine-protein kinase 2 (Homo sapiens, UniProt Q96PF2); format: functional;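 further: part of the Navigating the Kinome panel, target entry STK22B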
[8] = target: C-C chemokine receptor type 6 (Homo sapiens, UniProt P51684); experiment: analog antagonism of CCR6 beta-arrestin signaling – cell-based, luminescent beta-arrestin readout, SAR follow-up (AID 540334); format: functional
Streptokinase A = target: T1, Streptokinase A (Streptococcus pyogenes serotype M1, UniProt P10520); experiment: viability-normalized secreted streptokinase activity reduction – plasminogen activation absorbance, OD405, dose response (AID 1914); format: functional, Streptococcus pyogenes M1 GAS;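 further: secreted streptokinase activity via plasminogen activation per viability signal from cell pellet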
T1 sequence (P10520 whole entry): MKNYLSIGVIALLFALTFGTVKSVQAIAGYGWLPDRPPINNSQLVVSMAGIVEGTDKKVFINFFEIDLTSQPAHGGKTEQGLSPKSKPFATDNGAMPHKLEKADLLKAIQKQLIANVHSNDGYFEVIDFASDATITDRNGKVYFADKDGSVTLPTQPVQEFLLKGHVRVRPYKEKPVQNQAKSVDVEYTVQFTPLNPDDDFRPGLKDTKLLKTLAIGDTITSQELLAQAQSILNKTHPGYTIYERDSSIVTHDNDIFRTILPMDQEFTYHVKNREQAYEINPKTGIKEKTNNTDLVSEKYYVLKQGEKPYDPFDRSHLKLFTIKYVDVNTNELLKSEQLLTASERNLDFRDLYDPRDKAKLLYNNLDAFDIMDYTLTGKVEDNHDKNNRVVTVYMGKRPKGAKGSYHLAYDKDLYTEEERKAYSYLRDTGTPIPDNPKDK

Streptococcus = experiment: GAS UMAA2166 growth inhibition – luminescence, BacTiterGlo, counter-screen for streptokinase expression inhibitor project, dose response (AID 1915); format: functional, organism-based;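 further: potency for reduction of bacterial viability or growth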
[9] = target: T2, Ubiquitin-conjugating enzyme E2 N (Homo sapiens, UniProt P61088); format: functional
T2 sequence (P61088 whole entry): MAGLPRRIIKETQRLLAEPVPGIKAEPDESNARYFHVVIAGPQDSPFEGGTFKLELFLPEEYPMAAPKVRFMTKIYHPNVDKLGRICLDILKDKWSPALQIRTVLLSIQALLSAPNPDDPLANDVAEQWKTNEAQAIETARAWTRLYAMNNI

Apelin receptor = Apelin receptor (Homo sapiens, UniProt P35414); experiment: apelin receptor antagonists, arrestin read-out – cell-based, luminescent, enzyme-fragment complementation, selectivity assay for CCR6 antagonist project, SAR follow-up (AID 588359); format: functional
[10] = tested on: Streptococcus sp. 'group A'; experiment: Streptococcus pyogenes SK(-)GAS viability under kanamycin – luminescence, BacTiterGlo, confirmation, counter-screen for streptokinase expression inhibitor project, dose response (AID 1900); format: functional, organism-based
[11] = target: C-X-C chemokine receptor type 5 (Homo sapiens, UniProt P32302); experiment: inhibition of CXCL13-driven CXCR5 beta-arrestin recruitment – cell-based, luminescence, CHO-K1 PathHunter, selectivity assay for CCR6 antagonist project, SAR follow-up (AID 540340); format: functional
[12] = target: T2, Ubiquitin-conjugating enzyme E2 N; format: functional; remark: listed apart in the source
Bcl-2-related protein A1 = target: T3, Bcl-2-related protein A1 (Mus musculus, UniProt Q07440); format: functional;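 further: confirmatory dose–response counterscreen on Bfl-1, used to check hits from a UBC13 polyubiquitin inhibitor campaign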
T3 sequence (Q07440 whole entry): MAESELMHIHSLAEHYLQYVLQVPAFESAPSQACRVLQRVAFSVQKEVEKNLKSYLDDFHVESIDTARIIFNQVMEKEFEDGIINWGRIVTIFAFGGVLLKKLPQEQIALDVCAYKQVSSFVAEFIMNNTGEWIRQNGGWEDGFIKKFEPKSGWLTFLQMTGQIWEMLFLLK

[13] = target: Voltage-gated inwardly rectifying potassium channel KCNH2 (Homo sapiens, UniProt Q12809); conditions: Potency;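 further: confirmatory quantitative high-throughput screen measuring inhibition of hERG channel activity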
[14] = target: Ribosomal protein S6 kinase alpha-3 (Homo sapiens, UniProt P51812); format: functional;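 further: measured within a kinome-wide profiling panel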
[15] = target: Serine/threonine-protein kinase pim-1 (Homo sapiens, UniProt P11309); format: functional
[16] = target: Serine/threonine-protein kinase Chk1 (Homo sapiens, UniProt O14757); format: functional;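 further: measured as one member of a kinome-wide kinase profiling panel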
Caspase-3 [17] = target: T4, Caspase-3 (Homo sapiens, UniProt P42574); experiment: SAR Analysis of small molecule inhibitors of Sentrin-specific proteases (SENPs) using a Caspase-3 Selectivity assay. [Related pubchem assays (depositor defined):AID2540, AID2599, AID434973, AID489001]; format: functional
T4 sequence (P42574 whole entry): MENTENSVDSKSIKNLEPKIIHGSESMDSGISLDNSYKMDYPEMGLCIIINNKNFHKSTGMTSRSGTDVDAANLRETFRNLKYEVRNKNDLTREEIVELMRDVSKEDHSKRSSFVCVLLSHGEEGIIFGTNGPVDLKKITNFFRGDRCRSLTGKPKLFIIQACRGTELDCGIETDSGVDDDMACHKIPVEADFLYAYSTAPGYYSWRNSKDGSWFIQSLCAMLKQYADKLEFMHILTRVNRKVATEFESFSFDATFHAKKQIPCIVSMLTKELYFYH

[18] = target: T5, Sentrin-specific protease 6 (Homo sapiens, UniProt Q9GZR1); experiment: inhibition of human SENP6 catalytic domain – biochemical, luminescence, set 2, SAR follow-up (AID 588598); format: functional
T5 sequence (Q9GZR1 whole entry): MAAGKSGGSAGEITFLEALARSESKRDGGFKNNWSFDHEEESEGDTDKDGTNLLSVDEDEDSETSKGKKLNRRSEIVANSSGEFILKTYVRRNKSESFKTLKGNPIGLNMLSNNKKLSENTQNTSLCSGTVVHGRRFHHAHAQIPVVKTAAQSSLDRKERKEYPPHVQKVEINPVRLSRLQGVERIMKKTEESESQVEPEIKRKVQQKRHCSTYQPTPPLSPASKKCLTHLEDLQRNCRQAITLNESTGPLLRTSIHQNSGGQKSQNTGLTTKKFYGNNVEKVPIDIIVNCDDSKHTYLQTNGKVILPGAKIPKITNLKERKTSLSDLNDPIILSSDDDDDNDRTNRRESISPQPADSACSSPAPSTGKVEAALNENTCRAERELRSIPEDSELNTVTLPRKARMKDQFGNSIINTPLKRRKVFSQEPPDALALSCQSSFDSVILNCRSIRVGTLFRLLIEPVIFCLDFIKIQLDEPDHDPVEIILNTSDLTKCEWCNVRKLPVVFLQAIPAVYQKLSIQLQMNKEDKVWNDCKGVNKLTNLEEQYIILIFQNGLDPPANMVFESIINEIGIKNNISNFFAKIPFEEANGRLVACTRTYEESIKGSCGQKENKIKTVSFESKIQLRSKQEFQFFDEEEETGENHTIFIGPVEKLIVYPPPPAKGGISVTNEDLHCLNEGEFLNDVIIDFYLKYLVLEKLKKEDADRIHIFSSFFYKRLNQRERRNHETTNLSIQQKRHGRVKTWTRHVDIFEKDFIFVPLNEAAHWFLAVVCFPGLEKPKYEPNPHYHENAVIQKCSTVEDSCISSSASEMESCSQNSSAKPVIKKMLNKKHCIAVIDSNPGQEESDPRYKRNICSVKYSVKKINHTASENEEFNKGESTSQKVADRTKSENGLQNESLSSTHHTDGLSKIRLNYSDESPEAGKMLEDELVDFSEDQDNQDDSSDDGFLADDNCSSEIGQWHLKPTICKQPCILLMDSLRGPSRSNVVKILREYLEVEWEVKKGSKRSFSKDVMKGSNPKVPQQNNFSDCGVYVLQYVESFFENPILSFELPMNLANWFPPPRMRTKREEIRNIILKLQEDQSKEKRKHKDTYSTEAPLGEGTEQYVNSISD

[19] = target: T5, Sentrin-specific protease 6; experiment: SAR Analysis of small molecule inhibitors of Sentrin-specific protease 6 (SENP6) using a Luminescent assay. [Related pubchem assays (depositor defined):AID2582, AID2599]; format: functional
[20] = target: T6, Sentrin-specific protease 7 (Homo sapiens, UniProt Q9BQF6); experiment: inhibition of human SENP7 cleavage activity – biochemical, luminescence, SAR follow-up (AID 504497); format: functional
T6 sequence (Q9BQF6 whole entry): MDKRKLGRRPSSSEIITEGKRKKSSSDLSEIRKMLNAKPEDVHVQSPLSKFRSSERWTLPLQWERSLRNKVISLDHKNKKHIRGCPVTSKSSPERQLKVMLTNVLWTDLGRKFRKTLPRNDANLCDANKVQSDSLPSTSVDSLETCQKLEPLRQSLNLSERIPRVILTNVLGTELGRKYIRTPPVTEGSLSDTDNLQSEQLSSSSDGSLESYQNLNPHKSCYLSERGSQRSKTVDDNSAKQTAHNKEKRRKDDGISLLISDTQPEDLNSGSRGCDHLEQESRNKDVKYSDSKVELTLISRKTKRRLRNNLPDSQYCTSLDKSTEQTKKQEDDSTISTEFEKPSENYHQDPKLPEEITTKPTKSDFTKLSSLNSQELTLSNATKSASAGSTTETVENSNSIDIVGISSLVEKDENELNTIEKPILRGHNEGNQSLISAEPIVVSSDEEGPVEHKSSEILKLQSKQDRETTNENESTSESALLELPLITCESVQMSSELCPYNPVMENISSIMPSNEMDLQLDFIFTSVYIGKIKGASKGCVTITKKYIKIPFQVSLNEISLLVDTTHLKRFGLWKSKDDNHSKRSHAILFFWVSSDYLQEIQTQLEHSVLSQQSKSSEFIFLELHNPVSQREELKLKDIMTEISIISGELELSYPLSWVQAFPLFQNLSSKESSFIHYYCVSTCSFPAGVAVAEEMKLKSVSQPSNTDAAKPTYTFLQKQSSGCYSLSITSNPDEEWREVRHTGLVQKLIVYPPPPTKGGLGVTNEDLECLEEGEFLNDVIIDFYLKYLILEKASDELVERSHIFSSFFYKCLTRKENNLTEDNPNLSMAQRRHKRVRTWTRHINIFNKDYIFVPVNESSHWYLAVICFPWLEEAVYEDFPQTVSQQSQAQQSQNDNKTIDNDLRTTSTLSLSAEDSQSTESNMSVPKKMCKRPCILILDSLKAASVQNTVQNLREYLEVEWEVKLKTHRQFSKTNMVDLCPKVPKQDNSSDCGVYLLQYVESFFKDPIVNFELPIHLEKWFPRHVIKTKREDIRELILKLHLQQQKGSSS

Caspase-3 [21] = target: T4, Caspase-3; experiment: inhibition of recombinant caspase-3 activity – biochemical, luminescence, set 2, selectivity assay for SENP protease inhibitor project, SAR follow-up (AID 588599); format: functional
[22] = target: T7, Sentrin-specific protease 8 (Homo sapiens, UniProt Q96LD8); experiment: inhibition of sentrin protease 8 – biochemical, luminescence, set 2, SAR follow-up (AID 588601); format: functional
T7 sequence (Q96LD8 whole entry): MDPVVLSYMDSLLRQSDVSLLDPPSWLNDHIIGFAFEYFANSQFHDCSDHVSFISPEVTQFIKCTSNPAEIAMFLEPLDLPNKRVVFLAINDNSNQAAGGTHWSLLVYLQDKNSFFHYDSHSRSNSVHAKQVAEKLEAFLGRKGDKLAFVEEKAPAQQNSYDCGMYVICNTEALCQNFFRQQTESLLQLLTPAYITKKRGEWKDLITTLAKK

[23] = target: T7, Sentrin-specific protease 8; experiment: inhibition of human SENP8 cleavage activity – biochemical, luminescence, SAR follow-up (AID 504501); format: functional
[24] = target: T6, Sentrin-specific protease 7; experiment: inhibition of human SENP7 cleavage activity – biochemical, luminescence, set 2, SAR follow-up (AID 588600); format: functional
[25] = THP-1 cell cytotoxicity, cytotoxicity control, set 6 (AID 602433); format: functional; conditions: Mycobacterium tuberculosis
[26] = target: Interleukin-1 receptor-associated kinase 1 (Homo sapiens, UniProt P51617); format: functional;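 further: IRAK1 tested as one member of a kinome panel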
[27] = target: Megakaryocyte-associated tyrosine-protein kinase (Homo sapiens, UniProt P42679); format: functional;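 further: affinity measured as one member of a kinase panel (Navigating the Kinome) against MATK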
[28] = target: Serine/threonine-protein kinase BRSK1 (Homo sapiens, UniProt Q8TDC3); format: functional;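 further: measured within a kinome-wide kinase panel, with the target listed as KIAA1811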

Chain of Voltage-gated inwardly rectifying potassium channel KCNH2 (Q12809 whole entry): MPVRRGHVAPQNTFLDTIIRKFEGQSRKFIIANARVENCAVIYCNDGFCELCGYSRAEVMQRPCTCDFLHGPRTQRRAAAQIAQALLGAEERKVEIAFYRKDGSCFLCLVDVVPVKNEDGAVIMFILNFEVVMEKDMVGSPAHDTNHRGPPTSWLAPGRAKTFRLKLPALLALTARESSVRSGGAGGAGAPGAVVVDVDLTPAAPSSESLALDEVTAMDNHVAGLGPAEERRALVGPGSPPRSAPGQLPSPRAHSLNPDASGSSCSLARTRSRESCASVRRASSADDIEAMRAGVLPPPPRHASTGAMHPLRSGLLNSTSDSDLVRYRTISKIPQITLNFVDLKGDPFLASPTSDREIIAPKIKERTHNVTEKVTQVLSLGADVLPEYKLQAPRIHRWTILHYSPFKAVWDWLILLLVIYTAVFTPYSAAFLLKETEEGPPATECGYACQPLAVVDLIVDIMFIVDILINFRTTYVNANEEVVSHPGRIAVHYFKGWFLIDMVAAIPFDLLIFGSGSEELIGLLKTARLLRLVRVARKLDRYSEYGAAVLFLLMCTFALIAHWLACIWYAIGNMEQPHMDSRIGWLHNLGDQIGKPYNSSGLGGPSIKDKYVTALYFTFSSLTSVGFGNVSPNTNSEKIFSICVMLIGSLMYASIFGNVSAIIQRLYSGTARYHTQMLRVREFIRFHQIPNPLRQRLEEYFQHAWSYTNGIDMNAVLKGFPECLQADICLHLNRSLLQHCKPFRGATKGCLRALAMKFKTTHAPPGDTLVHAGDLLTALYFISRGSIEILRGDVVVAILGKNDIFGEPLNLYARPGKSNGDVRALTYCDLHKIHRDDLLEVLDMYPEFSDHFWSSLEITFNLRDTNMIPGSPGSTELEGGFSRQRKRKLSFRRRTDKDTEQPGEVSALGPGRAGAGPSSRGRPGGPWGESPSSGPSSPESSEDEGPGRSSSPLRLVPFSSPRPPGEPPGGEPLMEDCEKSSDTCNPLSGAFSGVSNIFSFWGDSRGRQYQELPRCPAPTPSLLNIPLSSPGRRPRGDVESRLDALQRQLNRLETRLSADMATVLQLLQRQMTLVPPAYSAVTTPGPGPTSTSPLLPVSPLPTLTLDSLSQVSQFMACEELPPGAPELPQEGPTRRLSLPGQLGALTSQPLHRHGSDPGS
Chain of Dual specificity tyrosine-phosphorylation-regulated kinase 4 (Q9NR20 whole entry): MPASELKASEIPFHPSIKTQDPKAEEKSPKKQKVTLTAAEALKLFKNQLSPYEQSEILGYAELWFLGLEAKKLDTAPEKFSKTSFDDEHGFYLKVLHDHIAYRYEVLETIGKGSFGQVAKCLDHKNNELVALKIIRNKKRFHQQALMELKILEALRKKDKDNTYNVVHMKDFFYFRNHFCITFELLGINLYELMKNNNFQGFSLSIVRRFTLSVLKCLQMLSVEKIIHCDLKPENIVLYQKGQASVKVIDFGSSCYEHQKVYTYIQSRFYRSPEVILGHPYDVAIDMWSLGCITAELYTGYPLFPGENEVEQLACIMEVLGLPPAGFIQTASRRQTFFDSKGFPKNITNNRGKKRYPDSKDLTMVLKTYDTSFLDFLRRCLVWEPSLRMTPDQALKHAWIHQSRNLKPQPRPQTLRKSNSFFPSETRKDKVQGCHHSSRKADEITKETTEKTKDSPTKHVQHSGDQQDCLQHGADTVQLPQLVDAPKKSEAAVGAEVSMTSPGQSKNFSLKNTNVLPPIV
Chain of C-C chemokine receptor type 6 (P51684 whole entry): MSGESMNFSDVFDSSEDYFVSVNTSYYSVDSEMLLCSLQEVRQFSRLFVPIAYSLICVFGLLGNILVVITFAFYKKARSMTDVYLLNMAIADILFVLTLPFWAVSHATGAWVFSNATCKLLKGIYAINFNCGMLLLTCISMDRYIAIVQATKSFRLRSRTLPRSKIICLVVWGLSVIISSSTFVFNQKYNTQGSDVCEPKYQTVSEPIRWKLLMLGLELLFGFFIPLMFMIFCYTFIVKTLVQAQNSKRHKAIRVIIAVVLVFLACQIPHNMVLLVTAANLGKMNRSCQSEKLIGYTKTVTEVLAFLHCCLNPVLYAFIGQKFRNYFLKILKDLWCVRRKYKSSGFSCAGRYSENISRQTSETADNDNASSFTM
Chain of Testis-specific serine/threonine-protein kinase 2 (Q96PF2 whole entry): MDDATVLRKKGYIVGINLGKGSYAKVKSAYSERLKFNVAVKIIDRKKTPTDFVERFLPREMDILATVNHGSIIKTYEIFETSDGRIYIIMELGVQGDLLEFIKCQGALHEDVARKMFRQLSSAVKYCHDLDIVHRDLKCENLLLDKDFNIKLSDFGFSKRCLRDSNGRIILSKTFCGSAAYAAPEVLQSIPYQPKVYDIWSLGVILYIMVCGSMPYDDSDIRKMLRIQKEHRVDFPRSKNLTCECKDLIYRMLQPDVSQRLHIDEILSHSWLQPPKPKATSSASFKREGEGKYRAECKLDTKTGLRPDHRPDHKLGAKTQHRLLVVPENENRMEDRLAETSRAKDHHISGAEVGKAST
Chain of C-X-C chemokine receptor type 5 (P32302 whole entry): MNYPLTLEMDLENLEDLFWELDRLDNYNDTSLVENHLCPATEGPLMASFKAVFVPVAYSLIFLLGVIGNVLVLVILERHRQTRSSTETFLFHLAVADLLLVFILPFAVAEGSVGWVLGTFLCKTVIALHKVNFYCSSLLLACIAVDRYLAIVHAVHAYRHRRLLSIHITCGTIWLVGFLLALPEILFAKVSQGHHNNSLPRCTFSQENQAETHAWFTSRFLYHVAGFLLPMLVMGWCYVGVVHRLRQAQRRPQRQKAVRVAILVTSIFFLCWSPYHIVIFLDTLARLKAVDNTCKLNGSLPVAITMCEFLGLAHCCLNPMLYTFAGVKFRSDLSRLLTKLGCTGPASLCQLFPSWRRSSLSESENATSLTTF
Chain of Serine/threonine-protein kinase D2 (Q9BZL6 whole entry): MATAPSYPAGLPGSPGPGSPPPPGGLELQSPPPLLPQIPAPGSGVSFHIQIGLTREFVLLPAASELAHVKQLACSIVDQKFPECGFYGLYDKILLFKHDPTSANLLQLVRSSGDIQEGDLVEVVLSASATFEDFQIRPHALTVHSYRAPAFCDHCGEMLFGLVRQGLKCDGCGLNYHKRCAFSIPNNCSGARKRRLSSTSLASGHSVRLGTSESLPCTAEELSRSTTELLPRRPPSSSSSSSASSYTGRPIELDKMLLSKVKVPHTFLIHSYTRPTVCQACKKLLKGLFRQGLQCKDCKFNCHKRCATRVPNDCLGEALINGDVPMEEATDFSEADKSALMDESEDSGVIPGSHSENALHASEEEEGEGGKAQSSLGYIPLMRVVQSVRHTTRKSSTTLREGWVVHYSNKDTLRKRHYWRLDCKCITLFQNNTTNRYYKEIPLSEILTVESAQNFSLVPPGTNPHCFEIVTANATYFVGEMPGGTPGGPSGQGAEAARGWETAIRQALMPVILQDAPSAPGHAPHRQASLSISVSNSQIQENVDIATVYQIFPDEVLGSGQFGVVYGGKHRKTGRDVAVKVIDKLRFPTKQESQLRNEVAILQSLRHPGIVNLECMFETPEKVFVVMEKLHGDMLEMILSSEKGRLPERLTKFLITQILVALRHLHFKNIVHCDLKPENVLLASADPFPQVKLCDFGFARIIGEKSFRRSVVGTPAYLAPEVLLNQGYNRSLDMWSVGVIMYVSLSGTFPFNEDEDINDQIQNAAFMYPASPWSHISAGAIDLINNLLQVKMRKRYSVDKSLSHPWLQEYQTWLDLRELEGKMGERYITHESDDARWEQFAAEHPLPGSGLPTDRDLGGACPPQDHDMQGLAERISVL
Chain of MAP kinase-activated protein kinase 3 (Q16644 whole entry): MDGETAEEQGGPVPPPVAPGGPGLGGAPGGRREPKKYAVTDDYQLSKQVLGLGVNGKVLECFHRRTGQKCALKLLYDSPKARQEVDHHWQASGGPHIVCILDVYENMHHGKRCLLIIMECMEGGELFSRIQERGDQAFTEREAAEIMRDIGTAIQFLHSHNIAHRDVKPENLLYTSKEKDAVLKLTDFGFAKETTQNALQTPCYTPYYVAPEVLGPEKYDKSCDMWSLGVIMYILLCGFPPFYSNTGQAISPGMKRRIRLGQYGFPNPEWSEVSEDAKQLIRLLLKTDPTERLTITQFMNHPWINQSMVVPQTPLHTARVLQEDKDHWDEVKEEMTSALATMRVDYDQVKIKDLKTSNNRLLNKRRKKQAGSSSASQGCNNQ
Chain of Interleukin-1 receptor-associated kinase 1 (P51617 whole entry): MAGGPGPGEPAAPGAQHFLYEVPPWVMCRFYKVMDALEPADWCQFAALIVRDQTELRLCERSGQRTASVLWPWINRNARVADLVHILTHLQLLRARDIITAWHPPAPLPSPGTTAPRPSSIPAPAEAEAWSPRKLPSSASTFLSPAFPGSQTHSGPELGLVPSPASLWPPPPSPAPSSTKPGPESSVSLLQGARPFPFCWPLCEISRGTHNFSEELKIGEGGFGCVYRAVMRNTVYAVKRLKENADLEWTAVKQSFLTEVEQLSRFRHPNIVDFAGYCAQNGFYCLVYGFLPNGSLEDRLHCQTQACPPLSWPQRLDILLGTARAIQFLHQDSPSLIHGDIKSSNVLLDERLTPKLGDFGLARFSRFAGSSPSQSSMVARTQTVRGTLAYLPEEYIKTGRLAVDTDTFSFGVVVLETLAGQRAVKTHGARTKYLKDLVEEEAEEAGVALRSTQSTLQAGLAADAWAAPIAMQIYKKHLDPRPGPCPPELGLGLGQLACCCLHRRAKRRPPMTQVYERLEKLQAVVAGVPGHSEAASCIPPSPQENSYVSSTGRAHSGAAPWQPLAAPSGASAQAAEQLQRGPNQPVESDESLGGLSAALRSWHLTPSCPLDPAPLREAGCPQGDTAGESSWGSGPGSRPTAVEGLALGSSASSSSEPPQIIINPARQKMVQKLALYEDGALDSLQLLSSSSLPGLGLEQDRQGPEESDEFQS

## CCN(CC)CCNC(=O)c1c(C)[nH]c(C=C2C(=O)Nc3ccc(F)cc32)c1C
[1]
  Ki: > 10 µM (inactive)
[2]
  Ki: > 10 µM (inactive)
[3]
  Ki: > 7.94 µM (inactive)
[4]
  Ki: 0.398 µM (active)
[5]
  Ki: > 6.31 µM (inactive)
[6]
  Ki: > 3.98 µM (inactive)
[7]
  Ki: 0.631 µM (active)

## CCCCCCCCCCCCC/C=C/[C@@H](O)[C@@H](N)CO [SPHINGOSINE]
[8]
  IC50: 20.9 µM (inactive)
Streptokinase A
  EC50: > 150 µM (not active)
Streptococcus
  EC50: 8.1 µM (active)
[9]
  IC50: 6.42 µM (active)
Apelin receptor
  IC50: > 66.6 µM (inactive)
[10]
  EC50: 1.52 µM (active)
[11]
  IC50: 32.5 µM (inactive)
[12]
  IC50: 6.2 µM (active)
Bcl-2-related protein A1
  IC50: > 20 µM (inactive)
[13]
  AC50: 35.5 µM (inconclusive)

## Cc1ccc2c(=O)[nH]cnc2c1
[14]
  Ki: 5.01 µM (active)
[15]
  Ki: 7.94 µM (active)
[16]
  Ki: 15.8 µM (active)

## Oc1ccccc1-c1nc(/C=C/c2ccc(Cl)cc2)no1
Caspase-3 [17]
  IC50: 3.7 µM (active)
[18]
  IC50: 1.5 µM (active)
[19]
  IC50: > 99 µM (inactive)
[20]
  IC50: 1.4 µM (active)
Caspase-3 [21]
  IC50: 1.57 µM (active)
[22]
  IC50: 1.44 µM (active)
[23]
  IC50: > 99 µM (inactive)
[24]
  IC50: 2.08 µM (active)

## COCCNC(=O)CSc1nc2ccccc2c(=O)[nH]1
[25]
  CC50: > 100 µM (active)

## CC1=NN(c2ccc(C(=O)O)cc2)C(=O)C1=Cc1c(C)cc2nc3ccccc3n2c1O
[26]
  Ki: 6.31 µM (active)
[27]
  Ki: 1.58 µM (active)
[28]
  Ki: 5.01 µM (active)

— ChEMBL document CHEMBL1201862, “PubChem BioAssay data set” (2004)
